Assay results taken from the kinase profiling compilation of Christmann-Franck et al. (2016).

Assays:
Assay in all cases: KINOMEscan competition binding
Settings in all cases: compound 10.0 µM
AKT2 (human) = AKT2 (human) (UniProt P31751)
ANKK1 (human) = ANKK1 (human) (UniProt Q8NFD2)
AURKC (human) = AURKC (human) (UniProt Q9UQB9)
BLK (human) = BLK (human) (UniProt P51451)
CAMK1D (human) = CAMK1D (human) (UniProt Q8IU85)
CDC2L2 (human) = CDC2L2 (human) (UniProt Q9UQ88)
CHEK2 (human) = CHEK2 (human) (UniProt O96017)
CLK4 (human) = CLK4 (human) (UniProt Q9HAZ1)
CSF1R (human) = CSF1R (human) (UniProt P07333)
DYRK1B (human) = DYRK1B (human) (UniProt Q9Y463)
EIF2AK1 (human) = EIF2AK1 (human) (UniProt Q9BQI3)
EPHB4 (human) = EPHB4 (human) (UniProt P54760)
EPHB6 (human) = EPHB6 (human) (UniProt O15197)
ERBB2 (human) = ERBB2 (human) (UniProt P04626)
FGFR4 (human) = FGFR4 (human) (UniProt P22455)
HCK (human) = HCK (human) (UniProt P08631)
[1] = target: JAK3 JH1 catalytic (human) (UniProt P52333)
[2] = system: KIT (human), P10721 [V559D/V654A]
LRRK2 (human) = LRRK2 (human) (UniProt Q5S007)
LTK (human) = LTK (human) (UniProt P29376)
LTK (human), sequence (P29376 whole entry, looked up): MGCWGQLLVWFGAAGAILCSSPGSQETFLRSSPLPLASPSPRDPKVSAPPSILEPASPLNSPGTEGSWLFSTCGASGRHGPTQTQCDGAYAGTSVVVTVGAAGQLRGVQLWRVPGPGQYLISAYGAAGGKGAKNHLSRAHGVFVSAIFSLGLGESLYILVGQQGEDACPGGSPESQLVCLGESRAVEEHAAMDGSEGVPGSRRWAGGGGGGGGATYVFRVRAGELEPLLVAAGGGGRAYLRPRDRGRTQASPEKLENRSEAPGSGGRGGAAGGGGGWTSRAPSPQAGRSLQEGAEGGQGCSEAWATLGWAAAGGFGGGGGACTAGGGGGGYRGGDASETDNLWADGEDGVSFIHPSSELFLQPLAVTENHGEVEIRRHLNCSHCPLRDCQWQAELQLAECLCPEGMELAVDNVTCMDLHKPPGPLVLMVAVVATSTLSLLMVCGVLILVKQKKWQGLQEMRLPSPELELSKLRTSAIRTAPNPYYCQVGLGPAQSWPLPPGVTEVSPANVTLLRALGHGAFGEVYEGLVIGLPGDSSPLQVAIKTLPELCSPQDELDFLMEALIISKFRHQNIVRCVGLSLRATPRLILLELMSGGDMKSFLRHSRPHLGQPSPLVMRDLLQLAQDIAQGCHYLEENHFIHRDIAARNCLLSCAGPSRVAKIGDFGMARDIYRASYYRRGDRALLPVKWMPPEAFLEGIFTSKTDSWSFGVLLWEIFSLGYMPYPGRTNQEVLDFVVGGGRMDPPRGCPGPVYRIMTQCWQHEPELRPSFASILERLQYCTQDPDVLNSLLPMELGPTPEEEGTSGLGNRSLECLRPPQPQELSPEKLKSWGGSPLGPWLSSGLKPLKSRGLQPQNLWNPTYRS

MAP2K2 (human) = MAP2K2 (human) (UniProt P36507)
MAP2K2 (human), sequence (P36507 whole entry, looked up): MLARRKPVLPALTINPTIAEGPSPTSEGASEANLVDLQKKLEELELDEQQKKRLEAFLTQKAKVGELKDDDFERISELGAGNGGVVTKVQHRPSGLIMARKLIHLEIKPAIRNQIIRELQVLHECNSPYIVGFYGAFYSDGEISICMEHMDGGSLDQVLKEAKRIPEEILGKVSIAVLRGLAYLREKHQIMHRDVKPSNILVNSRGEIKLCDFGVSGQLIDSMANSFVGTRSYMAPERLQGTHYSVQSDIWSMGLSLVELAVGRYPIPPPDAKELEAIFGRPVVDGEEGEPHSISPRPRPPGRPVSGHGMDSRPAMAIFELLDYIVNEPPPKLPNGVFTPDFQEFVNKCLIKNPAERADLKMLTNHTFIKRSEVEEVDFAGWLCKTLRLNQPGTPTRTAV

MAP4K2 (human) = MAP4K2 (human) (UniProt Q12851)
MAPK10 (human) = MAPK10 (human) (UniProt P53779)
MAPK11 (human) = MAPK11 (human) (UniProt Q15759)
MAPK8 (human) = MAPK8 (human) (UniProt P45983)
MAPK8 (human), sequence (P45983 whole entry, looked up): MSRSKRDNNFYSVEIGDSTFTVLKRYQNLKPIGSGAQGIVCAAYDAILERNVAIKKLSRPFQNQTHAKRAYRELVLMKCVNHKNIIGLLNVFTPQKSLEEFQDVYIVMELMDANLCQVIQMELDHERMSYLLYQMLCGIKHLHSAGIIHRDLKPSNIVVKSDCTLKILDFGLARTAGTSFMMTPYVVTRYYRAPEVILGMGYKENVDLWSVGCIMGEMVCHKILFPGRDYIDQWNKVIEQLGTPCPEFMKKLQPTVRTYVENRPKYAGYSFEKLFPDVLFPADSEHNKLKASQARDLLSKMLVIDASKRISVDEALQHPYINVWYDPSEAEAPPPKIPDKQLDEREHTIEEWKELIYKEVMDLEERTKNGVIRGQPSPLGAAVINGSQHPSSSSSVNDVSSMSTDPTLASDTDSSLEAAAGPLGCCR

NEK7 (human) = NEK7 (human) (UniProt Q8TDX7)
NIM1 (human) = NIM1 (human) (UniProt Q8IY84)
NTRK1 (human) = NTRK1 (human) (UniProt P04629)
NUAK2 (human) = NUAK2 (human) (UniProt Q9H093)
NUAK2 (human), sequence (Q9H093 whole entry, looked up): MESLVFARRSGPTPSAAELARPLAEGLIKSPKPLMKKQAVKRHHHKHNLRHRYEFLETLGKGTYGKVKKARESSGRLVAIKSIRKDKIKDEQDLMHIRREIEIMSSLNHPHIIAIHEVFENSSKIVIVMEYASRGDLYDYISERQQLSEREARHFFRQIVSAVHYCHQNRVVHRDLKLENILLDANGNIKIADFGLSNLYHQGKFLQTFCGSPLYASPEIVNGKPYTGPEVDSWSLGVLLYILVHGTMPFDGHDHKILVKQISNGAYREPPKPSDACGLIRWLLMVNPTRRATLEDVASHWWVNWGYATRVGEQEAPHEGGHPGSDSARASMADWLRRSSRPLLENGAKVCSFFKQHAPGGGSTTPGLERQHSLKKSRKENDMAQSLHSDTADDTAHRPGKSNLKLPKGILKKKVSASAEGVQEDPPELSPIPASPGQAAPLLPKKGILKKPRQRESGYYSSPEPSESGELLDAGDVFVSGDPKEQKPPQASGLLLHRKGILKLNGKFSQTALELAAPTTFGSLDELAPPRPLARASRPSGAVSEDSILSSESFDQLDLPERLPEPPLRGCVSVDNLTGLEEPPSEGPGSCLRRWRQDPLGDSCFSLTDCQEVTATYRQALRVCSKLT

PIK3C2G (human) = PIK3C2G (human) (UniProt O75747)
PLK2 (human) = PLK2 (human) (UniProt Q9NYY3)
PRKD3 (human) = PRKD3 (human) (UniProt O94806)
RIPK4 (human) = RIPK4 (human) (UniProt P57078)
RPS6KA5 KD2 (human) = RPS6KA5 KD2 (human) (UniProt O75582)
STK10 (human) = STK10 (human) (UniProt O94804)
STK10 (human), sequence (O94804 whole entry, looked up): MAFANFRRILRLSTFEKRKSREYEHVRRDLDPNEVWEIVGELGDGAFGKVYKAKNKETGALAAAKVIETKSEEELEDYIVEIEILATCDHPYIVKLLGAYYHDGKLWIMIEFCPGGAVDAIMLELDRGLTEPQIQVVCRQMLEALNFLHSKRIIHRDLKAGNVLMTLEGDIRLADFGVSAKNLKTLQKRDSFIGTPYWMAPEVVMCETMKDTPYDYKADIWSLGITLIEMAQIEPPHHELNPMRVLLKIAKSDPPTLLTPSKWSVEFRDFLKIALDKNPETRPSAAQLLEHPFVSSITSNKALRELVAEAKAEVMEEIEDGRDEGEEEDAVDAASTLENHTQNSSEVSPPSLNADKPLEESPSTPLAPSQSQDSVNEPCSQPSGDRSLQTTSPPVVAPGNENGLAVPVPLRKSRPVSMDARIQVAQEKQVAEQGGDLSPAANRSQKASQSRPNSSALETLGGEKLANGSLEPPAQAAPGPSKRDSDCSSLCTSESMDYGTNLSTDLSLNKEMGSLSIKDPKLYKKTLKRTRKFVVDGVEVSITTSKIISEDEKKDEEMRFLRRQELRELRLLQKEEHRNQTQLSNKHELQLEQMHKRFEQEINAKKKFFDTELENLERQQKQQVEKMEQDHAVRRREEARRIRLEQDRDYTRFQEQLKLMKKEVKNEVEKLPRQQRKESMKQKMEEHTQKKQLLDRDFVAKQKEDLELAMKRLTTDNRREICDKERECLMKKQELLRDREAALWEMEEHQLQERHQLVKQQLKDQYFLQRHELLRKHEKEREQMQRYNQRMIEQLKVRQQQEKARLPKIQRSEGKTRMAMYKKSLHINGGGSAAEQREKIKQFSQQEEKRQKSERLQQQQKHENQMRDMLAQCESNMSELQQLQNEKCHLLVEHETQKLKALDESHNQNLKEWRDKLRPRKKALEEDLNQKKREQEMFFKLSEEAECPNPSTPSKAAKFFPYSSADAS

TEK (human) = TEK (human) (UniProt Q02763)
TESK1 (human) = TESK1 (human) (UniProt Q15569)
TIE1 (human) = TIE1 (human) (UniProt P35590)
ULK2 (human) = ULK2 (human) (UniProt Q8IYT8)
YES1 (human) = YES1 (human) (UniProt P07947)

BLK (human), sequence (P51451 whole entry, looked up): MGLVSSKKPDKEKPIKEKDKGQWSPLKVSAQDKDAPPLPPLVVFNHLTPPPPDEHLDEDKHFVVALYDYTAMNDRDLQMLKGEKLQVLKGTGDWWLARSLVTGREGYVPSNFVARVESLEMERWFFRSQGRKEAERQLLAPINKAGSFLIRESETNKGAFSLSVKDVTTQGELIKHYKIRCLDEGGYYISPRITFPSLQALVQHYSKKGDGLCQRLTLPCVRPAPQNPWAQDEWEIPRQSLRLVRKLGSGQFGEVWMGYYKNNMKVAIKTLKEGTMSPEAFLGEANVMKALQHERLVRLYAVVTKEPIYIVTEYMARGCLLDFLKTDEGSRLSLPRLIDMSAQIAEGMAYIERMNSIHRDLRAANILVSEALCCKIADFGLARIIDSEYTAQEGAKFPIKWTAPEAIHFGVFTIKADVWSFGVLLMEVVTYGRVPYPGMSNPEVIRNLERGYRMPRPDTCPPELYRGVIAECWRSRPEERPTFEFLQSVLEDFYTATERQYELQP
ANKK1 (human), sequence (Q8NFD2 whole entry, looked up): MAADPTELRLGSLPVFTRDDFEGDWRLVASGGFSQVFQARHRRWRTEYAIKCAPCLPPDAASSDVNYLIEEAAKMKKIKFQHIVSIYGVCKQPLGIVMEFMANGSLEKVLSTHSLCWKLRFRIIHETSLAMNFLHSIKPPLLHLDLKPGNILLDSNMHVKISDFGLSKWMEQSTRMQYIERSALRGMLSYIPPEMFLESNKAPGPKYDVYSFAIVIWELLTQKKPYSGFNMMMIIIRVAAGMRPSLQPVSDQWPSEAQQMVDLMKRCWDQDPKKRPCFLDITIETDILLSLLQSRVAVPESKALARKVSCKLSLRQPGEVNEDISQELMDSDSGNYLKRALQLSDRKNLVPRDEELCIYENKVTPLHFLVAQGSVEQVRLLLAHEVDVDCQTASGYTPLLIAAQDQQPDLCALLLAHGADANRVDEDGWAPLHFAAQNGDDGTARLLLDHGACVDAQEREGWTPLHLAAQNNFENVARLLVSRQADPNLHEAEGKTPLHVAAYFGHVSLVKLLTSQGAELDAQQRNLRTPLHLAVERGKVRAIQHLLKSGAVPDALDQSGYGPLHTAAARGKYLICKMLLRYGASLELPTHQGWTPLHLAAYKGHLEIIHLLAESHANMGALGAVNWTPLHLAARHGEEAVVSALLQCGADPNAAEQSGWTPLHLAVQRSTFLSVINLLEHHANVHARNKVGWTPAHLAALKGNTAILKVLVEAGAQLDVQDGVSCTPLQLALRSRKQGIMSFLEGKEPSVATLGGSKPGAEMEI
AKT2 (human), sequence (P31751 whole entry, looked up): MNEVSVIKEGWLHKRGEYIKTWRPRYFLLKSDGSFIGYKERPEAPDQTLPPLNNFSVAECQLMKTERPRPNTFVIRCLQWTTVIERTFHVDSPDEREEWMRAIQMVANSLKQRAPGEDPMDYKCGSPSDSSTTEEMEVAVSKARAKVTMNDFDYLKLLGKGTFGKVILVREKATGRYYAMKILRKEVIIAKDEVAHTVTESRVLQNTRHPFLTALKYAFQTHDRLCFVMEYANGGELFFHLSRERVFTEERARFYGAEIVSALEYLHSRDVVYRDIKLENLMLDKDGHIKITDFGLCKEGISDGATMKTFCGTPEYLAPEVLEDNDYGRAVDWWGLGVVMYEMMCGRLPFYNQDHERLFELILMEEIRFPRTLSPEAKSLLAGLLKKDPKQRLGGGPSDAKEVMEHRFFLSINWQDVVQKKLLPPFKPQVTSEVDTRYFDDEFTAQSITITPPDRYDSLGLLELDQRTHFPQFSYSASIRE

Row | SMILES | kinase still bound, per cent of control (AKT2 (human)) | kinase still bound, per cent of control (ANKK1 (human)) | kinase still bound, per cent of control (AURKC (human)) | kinase still bound, per cent of control (BLK (human)) | kinase still bound, per cent of control (CAMK1D (human)) | kinase still bound, per cent of control (CDC2L2 (human)) | kinase still bound, per cent of control (CHEK2 (human)) | kinase still bound, per cent of control (CLK4 (human)) | kinase still bound, per cent of control (CSF1R (human)) | kinase still bound, per cent of control (DYRK1B (human)) | kinase still bound, per cent of control (EIF2AK1 (human)) | kinase still bound, per cent of control (EPHB4 (human)) | kinase still bound, per cent of control (EPHB6 (human)) | kinase still bound, per cent of control (ERBB2 (human)) | kinase still bound, per cent of control (FGFR4 (human)) | kinase still bound, per cent of control (HCK (human)) | kinase still bound, per cent of control [1] | kinase still bound, per cent of control [2] | kinase still bound, per cent of control (LRRK2 (human)) | kinase still bound, per cent of control (LTK (human)) | other results
1 | O=c1cc(N2CCOCC2)oc2c(-c3cccc4c3sc3ccccc34)cccc12 | 51% | 100% | 100% | 100% | 68% | 100% | 100% | 95% | 100% | 85% | 100% | 87% | 100% | 100% | 99% | 100% | 81% | 100% | 100% | 93% | kinase still bound, per cent of control (MAP2K2 (human)): 97%; kinase still bound, per cent of control (MAP4K2 (human)): 100%; kinase still bound, per cent of control (MAPK10 (human)): 100%; kinase still bound, per cent of control (MAPK11 (human)): 90%; kinase still bound, per cent of control (MAPK8 (human)): 88%; kinase still bound, per cent of control (NEK7 (human)): 100%; kinase still bound, per cent of control (NIM1 (human)): 100%; kinase still bound, per cent of control (NTRK1 (human)): 81%; kinase still bound, per cent of control (NUAK2 (human)): 100%; kinase still bound, per cent of control (PIK3C2G (human)): 16%; kinase still bound, per cent of control (PLK2 (human)): 100%; kinase still bound, per cent of control (PRKD3 (human)): 100%; kinase still bound, per cent of control (RIPK4 (human)): 100%; kinase still bound, per cent of control (RPS6KA5 KD2 (human)): 80%; kinase still bound, per cent of control (STK10 (human)): 100%; kinase still bound, per cent of control (TEK (human)): 100%; kinase still bound, per cent of control (TESK1 (human)): 72%; kinase still bound, per cent of control (TIE1 (human)): 100%; kinase still bound, per cent of control (ULK2 (human)): 98%; kinase still bound, per cent of control (YES1 (human)): 94%
2 | COc1cc2ncnc(-n3nc(-c4ccccn4)nc3N)c2cc1OC | 42% | 12% | 6.2% | 8.8% | 34% | 100% | 78% | 2.2% | 52% | 2% | 51% | 22% | 2.2% | 93% | 96% | 12% | 33% | 82% | 41% | 24% | kinase still bound, per cent of control (MAP2K2 (human)): 74%; kinase still bound, per cent of control (MAP4K2 (human)): 43%; kinase still bound, per cent of control (MAPK10 (human)): 1.4%; kinase still bound, per cent of control (MAPK11 (human)): 8.2%; kinase still bound, per cent of control (MAPK8 (human)): 12%; kinase still bound, per cent of control (NEK7 (human)): 1.4%; kinase still bound, per cent of control (NIM1 (human)): 89%; kinase still bound, per cent of control (NTRK1 (human)): 48%; kinase still bound, per cent of control (NUAK2 (human)): 37%; kinase still bound, per cent of control (PIK3C2G (human)): 8.2%; kinase still bound, per cent of control (PLK2 (human)): 13%; kinase still bound, per cent of control (PRKD3 (human)): 42%; kinase still bound, per cent of control (RIPK4 (human)): 12%; kinase still bound, per cent of control (RPS6KA5 KD2 (human)): 33%; kinase still bound, per cent of control (STK10 (human)): 12%; kinase still bound, per cent of control (TEK (human)): 45%; kinase still bound, per cent of control (TESK1 (human)): 100%; kinase still bound, per cent of control (TIE1 (human)): 93%; kinase still bound, per cent of control (ULK2 (human)): 3%; kinase still bound, per cent of control (YES1 (human)): 77%
3 | COc1cc(C(=O)N2CCC(N3CCN(C)CC3)CC2)ccc1Nc1ncc2c(n1)N(C)c1ccccc1C(=O)N2C | 100% | 100% | 50% | 97% | 69% | 82% | 66% | 54% | 98% | 94% | 100% | 100% | 31% | 100% | 28% | 100% | 100% | 100% | 0% | 32% | kinase still bound, per cent of control (MAP2K2 (human)): 99%; kinase still bound, per cent of control (MAP4K2 (human)): 100%; kinase still bound, per cent of control (MAPK10 (human)): 77%; kinase still bound, per cent of control (MAPK11 (human)): 60%; kinase still bound, per cent of control (MAPK8 (human)): 95%; kinase still bound, per cent of control (NEK7 (human)): 100%; kinase still bound, per cent of control (NIM1 (human)): 100%; kinase still bound, per cent of control (NTRK1 (human)): 69%; kinase still bound, per cent of control (NUAK2 (human)): 47%; kinase still bound, per cent of control (PIK3C2G (human)): 100%; kinase still bound, per cent of control (PLK2 (human)): 100%; kinase still bound, per cent of control (PRKD3 (human)): 42%; kinase still bound, per cent of control (RIPK4 (human)): 74%; kinase still bound, per cent of control (RPS6KA5 KD2 (human)): 92%; kinase still bound, per cent of control (STK10 (human)): 100%; kinase still bound, per cent of control (TEK (human)): 100%; kinase still bound, per cent of control (TESK1 (human)): 82%; kinase still bound, per cent of control (TIE1 (human)): 100%; kinase still bound, per cent of control (ULK2 (human)): 67%; kinase still bound, per cent of control (YES1 (human)): 100%
